One may read the MIC as the smallest concentration in the dilution series that meets the test's criterion for growth inhibition. Usually IC50 stands for the concentration at which inhibition is half-maximal. High values mean lower potency, low ones higher potency.

Test [1] has as its system Enterococcus faecalis. The test can be described thus: Antibacterial activity against Enterococcus faecalis ATCC 19433 was determined. The class given is functional.
For test [2], the system named is Staphylococcus aureus. The test can be described thus: Antibacterial activity against methicillin-resistant Staphylococcus aureus (MRSA) 870307 was determined. The class given is functional.
Test [3] deals with Streptococcus pneumoniae. The experiment in a line: Antibacterial activity against Penicillin-resistant Streptococcus pneumoniae (PRSP) J-24 was determined. The class given is functional.
In test [4] the target is DNA topoisomerase II (Homo sapiens, UniProt P11388+Q02880). The experiment in a line: Inhibitory concentration against human DNA topoisomerase II. The class given is protein assay.
Test [5] concerns Staphylococcus epidermidis. The test can be described thus: Antibacterial activity against Staphylococcus epidermidis 56500 was determined. Type of test: functional.
In test [6] the test system is Streptococcus mitis. The experiment in a line: Antibacterial activity against Streptococcus mitis IID685 was determined. The class given is functional.
In test [7] the test system is Escherichia coli. The test can be described thus: Antibacterial activity against Escherichia coli NIHJ was determined. Type of test: functional.
For test [8], the system named is Klebsiella pneumoniae. The test can be described thus: Antibacterial activity against Klebsiella pneumoniae type II was determined. Type of test: functional.
For test [9], the system named is Staphylococcus aureus. The test can be described thus: Antibacterial activity against Staphylococcus aureus FDA 209P was determined. Type of test: functional. The conditions noted are these: Staphylococcus aureus; read-out: MIC.
Test [10] deals with T1, DNA topoisomerase 4 subunit A (Staphylococcus aureus subsp. aureus Mu50, UniProt Q931S2).
T1 sequence (Q931S2 whole entry): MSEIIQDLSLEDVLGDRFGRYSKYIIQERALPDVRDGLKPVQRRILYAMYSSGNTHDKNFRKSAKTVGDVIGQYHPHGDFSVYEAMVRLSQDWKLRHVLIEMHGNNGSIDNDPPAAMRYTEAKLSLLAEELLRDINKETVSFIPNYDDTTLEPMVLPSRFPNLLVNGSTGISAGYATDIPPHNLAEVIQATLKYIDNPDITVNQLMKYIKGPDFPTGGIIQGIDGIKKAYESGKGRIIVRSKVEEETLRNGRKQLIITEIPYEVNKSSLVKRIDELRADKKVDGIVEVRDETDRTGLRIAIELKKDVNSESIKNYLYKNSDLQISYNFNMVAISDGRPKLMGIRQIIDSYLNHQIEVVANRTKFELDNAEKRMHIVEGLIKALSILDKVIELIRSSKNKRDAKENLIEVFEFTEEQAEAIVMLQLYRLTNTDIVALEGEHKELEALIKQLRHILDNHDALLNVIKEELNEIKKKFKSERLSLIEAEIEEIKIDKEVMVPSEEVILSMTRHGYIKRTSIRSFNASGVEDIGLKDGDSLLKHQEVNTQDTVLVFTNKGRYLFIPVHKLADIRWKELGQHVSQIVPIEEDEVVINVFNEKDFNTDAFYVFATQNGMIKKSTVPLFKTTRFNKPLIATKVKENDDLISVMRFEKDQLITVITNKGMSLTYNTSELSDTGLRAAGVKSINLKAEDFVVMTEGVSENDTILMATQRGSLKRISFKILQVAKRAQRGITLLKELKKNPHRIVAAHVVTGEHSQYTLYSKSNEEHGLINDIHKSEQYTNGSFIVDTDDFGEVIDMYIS
The experiment in a line: Inhibitory concentration against Staphylococcus aureus DNA topoisomerase IV.

Test [11] deals with Streptococcus pyogenes. The test can be described thus: Antibacterial activity against Streptococcus pyogenes G-36 was determined. Type of test: functional.
Test [12] is described as follows: Ratio of binding to human DNA topoisomerase II and Staphylococcus aureus DNA topoisomerase IV.
The mark [13] stands for this setting: Enterococcus faecalis, ATCC 19433, read-out: MIC.
Where [14] appears, read: Staphylococcus aureus, read-out: MIC.
[15] abbreviates: Streptococcus pneumoniae, read-out: MIC.
[16] abbreviates: Staphylococcus epidermidis, read-out: MIC.
The mark [17] stands for this setting: Streptococcus mitis, read-out: MIC.
The mark [18] stands for this setting: Escherichia coli, read-out: MIC.
The mark [19] stands for this setting: Klebsiella pneumoniae, read-out: MIC.
Setting [20] is: Streptococcus pyogenes, read-out: MIC.

Molecules are shown by their SMILES. ≈ marks a conversion by molar mass, not a printed value. Where only a bound is given, the exact number is not on record here.

On to `Nc1c(F)c(N2C[C@H]3C[C@@H]4C[C@@H]4[C@@H](N)[C@H]3C2)c(F)c2c1c(=O)c(C(=O)O)cn2[C@@H]1C[C@@H]1F` (stereo in doubt; 24 (+)), for which the MIC in [1] is 0.02 µg/mL (≈ 0.0446 µM); in test [2], 0.01 µg/mL (≈ 0.0223 µM); in [3], “<=0.003 ug ml-1”; in test [5], “<=0.003 ug ml-1”; in test [6], “<=0.003 ug ml-1”; in test [7], “<=0.003 ug ml-1”. The MIC in [8] was 0.01 µg/mL (≈ 0.0223 µM); in test [9], ≤ 0.003 µg/mL; in test [11], “<=0.003 ug ml-1”. Also, the IC50 in test [4] is 22.47 µg/mL (≈ 50.1 µM); in [10], 312 nM.
As for `Cc1c(N2C[C@H]3CC[C@H]4C[C@@]4(N)[C@H]3C2)c(F)c(N)c2c(=O)c(C(=O)O)cn([C@@H]3C[C@@H]3F)c12`, the MIC in test [1] (setting [13]) is 0.02 µg/mL (≈ 0.045 µM); in [2] (setting [14]), 0.01 µg/mL (≈ 0.0225 µM); in [3] (setting [15]), 0.006 µg/mL (≈ 0.0135 µM); in test [5] (setting [16]) it was ≤ 0.003 µg/mL; in test [6] (setting [17]), ≤ 0.003 µg/mL; in test [7] (setting [18]) it was ≤ 0.003 µg/mL. In addition, the values for the MIC in [8] (setting [19]), in test [9] and in test [11] (setting [20]) were 0.01 µg/mL (≈ 0.0225 µM), ≤ 0.003 µg/mL and ≤ 0.003 µg/mL, respectively. Besides, in test [12], the Selectivity was 93.2. For the same molecule, the IC50 in test [4] was 34.21 µg/mL (≈ 77 µM); in [10], 810 nM.
For `Cc1c(N2C[C@H]3CCC[C@@H](N)[C@H]3C2)c(F)c(N)c2c(=O)c(C(=O)O)cn([C@@H]3C[C@@H]3F)c12`, the MIC in [1] (setting [13]) is 0.02 µg/mL (≈ 0.0462 µM); in test [2] (setting [14]), 0.01 µg/mL (≈ 0.0231 µM); in [3] (setting [15]), ≤ 0.003 µg/mL; in test [5] (setting [16]), ≤ 0.003 µg/mL; in test [6] (setting [17]) it was ≤ 0.003 µg/mL; in test [7] (setting [18]), 0.006 µg/mL (≈ 0.0139 µM). The MIC in [8] (setting [19]) is 0.02 µg/mL (≈ 0.0462 µM); in test [9] it was 0.006 µg/mL (≈ 0.0139 µM); in test [11] (setting [20]) it was ≤ 0.003 µg/mL. The Selectivity in test [12] stood at 14.7. For the same molecule, the IC50 in test [4] is 4.66 µg/mL (≈ 10.8 µM); in [10], 717 nM.
